The source of these data is patent publication US8658565B2 (priority 2010, dated 2014).

Read-outs that look alike come from different tables or passages of the source.

Holding throughout (format): in vivo
One assay deals with Botrytis cinerea. Put plainly: Botrytis test (beans)/preventive, Example I: biological control agent sprayed first, (I-1) 4 h later. The settings on record: (I-1) alone 12.5 ppm a.i., lesion size evaluated 2 days after inoculation. The procedure:
(§1) To produce a suitable preparation of active compound, 1 part by weight of the dithiino-tetracarboximide is mixed with 24.5 parts by weight of acetone, 24.5 parts by weight of dimethylacetamide and 1 part by weight of emulsifier alkylaryl polyglycol ether. The concentrate is diluted with water to the desired concentration.
BioNem WP®, a wettable powder formulation containing the bacteria Bacillus firmus, is mixed and diluted with water to the desired concentration.
Young plants are sprayed with the aqueous preparation of the biological control agents, e.g. BioNem WP®, at the stated rate of application. 4 hours later and after the spray coating has dried on, the plants are sprayed with the preparation of (I-1) 2,6-dimethyl-1H,5H-[1,4]dithiino[2,3-c:5,6-c′]dipyrrole-1,3,5,7(2H,6H)-tetrone at the stated rate of application. The next day the plants are inoculated by placing 2 small pieces of agar covered with growth of Botrytis cinerea on each leaf. The inoculated plants are placed in a darkened chamber at 20° C. and a relative atmospheric humidity of 100%. 2 days after the inoculation, the size of the lesions on the leaves is evaluated. 0% means an efficacy which corresponds to that of the untreated control, while an efficacy of 100% means that no disease is observed.

Assay [1] deals with Alternaria solani. Put plainly: Alternaria test (tomatoes)/preventive, Example D: (I-1) sprayed first, biological control agent 4 h later. The note with it: (I-1) alone 25 ppm a.i., evaluated 3 days after inoculation. The procedure:
as §1
Shemer, a water dispersible granule formulation containing the yeast Metschnikowia fructicola, is mixed and diluted with water to the desired concentration.
Young plants are sprayed with the preparation of (I-1) 2,6-dimethyl-1H,5H-[1,4]diithiino[2,3-c:5,6-c′]dipyrrole-1,3,5,7(2H,6H)-tetrone at the stated rate of application. 4 hours later and after the spray coating has dried on, the plants are sprayed with the aqueous preparation of the biological control agents, e.g. Shemer, at the stated rate of application. The next day the plants are inoculated with an aqueous spore suspension of Alternaria solani. The plants are then placed in an incubation cabinet at approximately 20° C. and a relative atmospheric humidity of 100%. The test is evaluated 3 days after the inoculation. 0% means an efficacy which corresponds to that of the untreated control while an efficacy of 100% means that no disease is observed.

The subject of assay [2] is Alternaria solani. Put plainly: Alternaria test (tomatoes)/preventive, Example H: biological control agent sprayed first, (I-1) 4 h later. The settings on record: (I-1) alone 25 ppm a.i., evaluated 3 days after inoculation. The procedure: as §1
(§2) Serenade® WPO, a wettable powder formulation containing the bacteria Bacillus subtilis (variety QST 713), is mixed and diluted with water to the desired concentration.
Young plants are sprayed with the aqueous preparation of the biological control agents, e.g. Serenade® WPO, at the stated rate of application. 4 hours later and after the spray coating has dried on, the plants are sprayed with the preparation of (I-1) 2,6-dimethyl-1H,5H-[1,4]dithiino[2,3-c:5,6-c′]dipyrrole-1,3,5,7(2H,6H)-tetrone at the stated rate of application. The next day the plants are inoculated with an aqueous spore suspension of Alternaria solani. The plants are then placed in an incubation cabinet at approximately 20° C. and a relative atmospheric humidity of 100%. The test is evaluated 3 days after the inoculation. 0% means an efficacy which corresponds to that of the untreated control while an efficacy of 100% means that no disease is observed.

The subject of assay [3] is Phytophthora infestans. The settings on record: tomatoes; (I-1) alone 50 ppm a.i.; evaluated 3 days after inoculation.
A further assay deals with Sphaerotheca fidiginea. As to the kind of experiment: Sphaerotheca test (cucumbers)/preventive, Example B: (I-1) sprayed first, biological control agent 4 h later. The settings on record: (I-1) alone 50 ppm a.i., evaluated 7 days after inoculation. The procedure:
as §1, §2
Young plants are sprayed with the preparation of (I-1) 2,6-dimethyl-1H,5H-[1,4]dithiino[…]dipyrrole-1,3,5,7(2H,6H)-tetrone at the stated rate of application. 4 hours later and after the spray coating has dried on, the plants are sprayed with the aqueous preparation of the biological control agents, e.g. Serenade® WPO, at the stated rate of application. The next day the plants are inoculated with an aqueous spore suspension of Sphaerotheca fidiginea. The plants are then placed in a greenhouse at approximately 23° C. and a relative atmospheric humidity of approximately 70%. The test is evaluated 7 days after the inoculation. 0% means an efficacy which corresponds to that of the untreated control, while an efficacy of 100% means that no disease is observed.

For assay [4], the system named is Venturia inaequalis. Put plainly: Venturia test (apples)/preventive, Example G: biological control agent sprayed first, (I-1) 4 h later. The settings on record: (I-1) alone 12.5 ppm a.i., evaluated 10 days after inoculation. The procedure:
as §1, §2
Young plants are sprayed with the aqueous preparation of the biological control agents, e.g. Serenade® WPO, at the stated rate of application. 4 hours later and after the spray coating has dried on, the plants are sprayed with the preparation of (I-1) 2,6-dimethyl-1H,5H-[1,4]dithiino[2,3-c:5,6-c′]dipyrrole-1,3,5,7(2H,6H)-tetrone at the stated rate of application. The next day the plants are inoculated with an aqueous conidia suspension of the causal agent of apple scab (Venturia inaequalis) and then remain for 1 day in an incubation cabinet at approximately 20° C. and a relative atmospheric humidity of 100%. The plants are then placed in a greenhouse at approximately 21° C. and a relative atmospheric humidity of approximately 90%. The test is evaluated 10 days after the inoculation. […]

For assay [5], the system named is Phytophthora infestans. The settings on record: tomatoes, evaluated 3 days after inoculation.
For assay [6], the system named is Venturia inaequalis. Put plainly: Venturia test (apples)/preventive, Example C: (I-1) sprayed first, biological control agent 4 h later. The settings on record: (I-1) alone 25 ppm a.i., evaluated 10 days after inoculation. The procedure: as §1, §2
Young plants are sprayed with the preparation of (I-1) 2,6-dimethyl-1H,5H-[1,4]dithiino[…]dipyrrole-1,3,5,7(2H,6H)-tetrone at the stated rate of application. 4 hours later and after the spray coating has dried on, the plants are sprayed with the aqueous preparation of the biological control agents, e.g. Serenade® WPO, at the stated rate of application. The next day the plants are inoculated with an aqueous conidia suspension of the causal agent of apple scab (Venturia inaequalis) and then remain for 1 day in an incubation cabinet at approximately 20° C. and a relative atmospheric humidity of 100%. The plants are then placed in a greenhouse at approximately 21° C. and a relative atmospheric humidity of approximately 90%. The test is evaluated 10 days after the inoculation. […]

The subject of another assay is Sphaerotheca fuliginea. As to the kind of experiment: Sphaerotheca test (cucumbers)/preventive, Example F: biological control agent sprayed first, (I-1) 4 h later. The settings on record: (I-1) alone 50 ppm a.i., evaluated 7 days after inoculation. The procedure:
as §1, §2
Young plants are sprayed with the aqueous preparation of the biological control agents, e.g. Serenade® WPO, at the stated rate of application. 4 hours later and after the spray coating has dried on, the plants are sprayed with the preparation of (I-1) 2,6-dimethyl-1H,5H-[1,4]dithiino[2,3-c:5,6-c′]dipyrrole-1,3,5,7(2H,6H)-tetrone at the stated rate of application. The next day the plants are inoculated with an aqueous spore suspension of Sphaerotheca fuliginea. The plants are then placed in a greenhouse at approximately 23° C. and a relative atmospheric humidity of approximately 70%. The test is evaluated 7 days after the inoculation. 0% means an efficacy which corresponds to that of the untreated control, while an efficacy of 100% means that no disease is observed.

Consider `Cn1c(=O)c2sc3c(=O)n(C)c(=O)c3sc2c1=O` [(I-1), 2,6-dimethyl-1H,5H-[1,4]dithiino[2,3-c:5,6-c′]dipyrrole-1,3,5,7(2H,6H)-tetrone], for which the “Efficacy in % found” value is 4% with Botrytis cinerea; 35% with Alternaria solani [1]; 21% in the assay with Alternaria solani [2]; 84% with Phytophthora infestans [3]; 0% in the assay with Sphaerotheca fidiginea; 48% in the assay with Venturia inaequalis [4]. For the same compound, the “Efficacy in % found” value was determined as 15% with Phytophthora infestans [5] ((I-1) alone 12.5 ppm a.i.), 40% in the assay on Phytophthora infestans [5] ((I-1) alone 25 ppm a.i.), 49% in the assay with Venturia inaequalis [6] and 0% with Sphaerotheca fuliginea.
